Experimental data from patent US20210395242A1, “HETEROCYCLIC COMPOUNDS AS AHR MODULATORS” (JAGUAHR THERAPEUTICS PTE LTD, priority 2018, published 2021).

Legend:
AhR = molecular target: T1, AhR (Homo sapiens, UniProt P35869); assay: AhR antagonism in U937 cells (Promega P450-Glo assay); type: cell-based; conditions: inhibition of 300 μM KYNA response, 24 hrs, CYP1A1 activity readout (Luciferin-CEE), arithmetic mean of pIC50
T1 construct: endogenous in cells; host or cells: U937 cells
T1 sequence (P35869 11-848): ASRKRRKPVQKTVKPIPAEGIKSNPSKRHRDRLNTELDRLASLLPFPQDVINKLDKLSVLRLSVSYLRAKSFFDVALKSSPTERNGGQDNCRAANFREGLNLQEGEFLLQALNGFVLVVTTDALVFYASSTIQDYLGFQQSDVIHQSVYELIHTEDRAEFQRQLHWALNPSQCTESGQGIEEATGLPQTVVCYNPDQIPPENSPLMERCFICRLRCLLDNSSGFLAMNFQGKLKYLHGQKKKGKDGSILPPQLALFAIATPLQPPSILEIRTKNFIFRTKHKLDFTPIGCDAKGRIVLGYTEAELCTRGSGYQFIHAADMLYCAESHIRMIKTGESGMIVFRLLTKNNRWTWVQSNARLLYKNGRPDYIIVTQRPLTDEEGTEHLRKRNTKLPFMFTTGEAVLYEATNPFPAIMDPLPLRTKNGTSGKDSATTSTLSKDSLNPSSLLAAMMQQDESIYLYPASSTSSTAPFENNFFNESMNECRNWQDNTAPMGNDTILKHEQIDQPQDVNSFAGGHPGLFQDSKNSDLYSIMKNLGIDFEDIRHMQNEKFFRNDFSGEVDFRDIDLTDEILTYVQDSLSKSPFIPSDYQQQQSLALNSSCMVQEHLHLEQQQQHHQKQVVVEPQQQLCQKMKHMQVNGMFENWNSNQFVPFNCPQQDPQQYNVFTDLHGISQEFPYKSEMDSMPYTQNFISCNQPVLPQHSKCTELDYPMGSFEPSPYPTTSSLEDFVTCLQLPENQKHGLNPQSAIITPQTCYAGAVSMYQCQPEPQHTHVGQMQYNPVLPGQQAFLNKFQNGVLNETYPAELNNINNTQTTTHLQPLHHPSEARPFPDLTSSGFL
Description: (§1) The compounds of the examples were tested in selected biological assays two or more times. Data are reported as the arithmetic mean of the pIC50 (−log10IC50) values, where IC50 is defined as the concentration of compound producing a 50% inhibition of the agonist (KYNA) response.
In Vitro Assay 1: AhR Antagonism in U937 Cells (Promega P450-Glo™ Assay)
AhR antagonism was assessed in U937 cells (myeloid lineage cell line derived from a human histiocytic lymphoma). Ligand binds the AhR in the cytoplasm, and the AhR-ligand complex translocates to the nucleus and forms a heterodimer with AhR nuclear translocator (Arnt). This complex binds the xenobiotic response element (XRE) in the 5′ upstream region of the CYP1A1 promoter, enhancing CYP1A1 expression. CYP1A1 activity is subsequently determined by assessing the conversion of Luciferin-CEE to luciferin, which in turn reacts with luciferase to produce light. The amount of light produced is directly proportional to cytochrome P450 activity. U937 cells in Ultraculture serum free media (Lonza) were plated at 100,000 cells per well in a round bottom 96 well tissue culture plate. Seven concentrations of test compound (final [DMSO]1%) were added and incubated for 10 minutes before the addition of 300 μM KYNA. The plates were then placed in an incubator at 37° C., >85% humidity, 5% CO2 for 24 hrs. After aspiration of the supernatant the CYP1A1 substrate Luciferin-CEE ([Final] 83 μM) was added and incubated for 3 hrs before the reaction was stopped by adding luciferin detection reagent and luminescence was read after 20 minutes.

CYP1A1 = molecular target: T2, CYP1A1 (Homo sapiens, UniProt P04798); assay: CYP1A1 inhibition assay (Promega P450-Glo, Cypex CYP1A1 bactosomes); type: biochemical; conditions: Luciferin-CEE 30 μM, 0.2 mM NADPH, 37° C. 10 minutes, arithmetic mean of pIC50
T2 construct: purchased Cypex
T2 sequence (P04798 1-512): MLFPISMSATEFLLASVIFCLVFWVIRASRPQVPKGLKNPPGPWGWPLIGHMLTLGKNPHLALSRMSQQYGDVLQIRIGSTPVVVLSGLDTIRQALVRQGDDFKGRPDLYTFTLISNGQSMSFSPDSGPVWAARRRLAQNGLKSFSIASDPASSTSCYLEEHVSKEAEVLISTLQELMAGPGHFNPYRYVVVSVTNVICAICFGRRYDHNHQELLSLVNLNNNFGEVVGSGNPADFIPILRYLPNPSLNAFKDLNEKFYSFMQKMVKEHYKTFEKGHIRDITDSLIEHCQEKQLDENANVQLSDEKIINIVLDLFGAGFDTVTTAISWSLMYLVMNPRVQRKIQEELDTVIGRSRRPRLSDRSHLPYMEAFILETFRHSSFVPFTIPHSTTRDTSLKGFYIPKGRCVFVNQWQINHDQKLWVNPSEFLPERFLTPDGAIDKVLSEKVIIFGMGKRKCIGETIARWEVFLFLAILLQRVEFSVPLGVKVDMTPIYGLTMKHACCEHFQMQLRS
Description: as §1
In vitro assay 2: CYP1A1 inhibition assay The direct CYP1A1 inhibitory activity of test compounds was also assessed using the Promega P450-Glo™ assay system. Seven concentrations of test compound were added to a ½ area white 96 well plate. Cypex CYP1A1 bactosomes ([final] 0.5 pmol) and CYP1A1 substrate Luciferin-CEE ([final] 30 μM) were prepared in 0.1M potassium phosphate buffer and incubated with test compounds at 37° C. for 5 minutes. 0.2 mM NADPH was then added to the plates and incubated at 37° C., for 10 minutes. The reaction was stopped by adding luciferin detection reagent and luminescence was read after 20 minutes.

| SMILES | IC50 (AhR) [nM] | IC50 (CYP1A1) [nM] |
| --- | --- | --- |
| CCn1c(-c2ccc(NC(=O)c3ccnn3C)cc2)nc2ccccc21 [Example 1, N-(4-(1-ethyl-1H-benzo[d]imidazol-2-yl)phenyl)-1-methyl-1H-pyrazole-5-carboxamide] | 63.1 | 251 |
| COCCn1nccc1C(=O)Nc1ccc(-c2nc3ccccc3o2)cc1 [Example 2, N-(4-(benzo[d]oxazol-2-yl)phenyl)-1-(2-methoxyethyl)-1H-pyrazole-5-carboxamide] | 100 | 794 |
| COC(=O)c1cccc2nc(-c3ccc(NC(=O)c4ccnn4C)cc3)oc12 [Example 3, methyl 2-(4-(1-methyl-1H-pyrazole-5-carboxamido)phenyl) benzo[d]oxazole-7-carboxylate] | – | 1260 |
| CNC(=O)c1cccc2nc(-c3ccc(NC(=O)c4ccnn4C)cc3)oc12 [Example 4, N-methyl-2-(4-(1-methyl-1H-pyrazole-5-carboxamido)phenyl) benzo[d]oxazole-7-carboxamide] | 79.4 | 1000 |
| Cc1nc(-c2ccc(NC(=O)c3ccnn3C)cc2)oc1C [Example 5, N-(4-(4,5-dimethyloxazol-2-yl)phenyl)-1-methyl-1H-pyrazole-5-carboxamide] | 15.8 | 1000 |
| Cc1cccc2nc(-c3ccc(NC(=O)c4ccnn4C)cc3)oc12 [Example 6, 1-methyl-N-(4-(7-methylbenzo[d]oxazol-2-yl)phenyl)-1H-pyrazole-5-carboxamide] | 39.8 | 631 |
| Cc1cc(NC(=O)c2ccon2)ccc1-c1nc2ccccc2o1 [Example 7, N-(4-(benzo[d]oxazol-2-yl)-3-methylphenyl)isoxazole-3-carboxamide] | 79.4 | 631 |
| Cc1cc(NC(=O)c2ccon2)ccc1-c1nc2cccc(C)c2o1 [Example 8, N-(3-methyl-4-(7-methylbenzo[d]oxazol-2-yl)phenyl) isoxazole-3-carboxamide] | 79.4 | 282 |
| Cc1cc(NC(=O)c2ccnn2C)ccc1-c1nc2cccc(C)c2o1 [Example 9, 1-methyl-N-(3-methyl-4-(7-methylbenzo[d]oxazol-2-yl)phenyl)-1H-pyrazole-5-carboxamide] | 7.94 | 158 |
| Cn1nccc1C(=O)Nc1ccc(-c2nc3ccccc3o2)cc1 [Example 10, N-(4-(benzo[d]oxazol-2-yl)phenyl)-1-methyl-1H-pyrazole-5-carboxamide] | 25.1 | 200 |
| Cn1nccc1C(=O)Nc1ccc(-c2nc3cccc(Cl)c3o2)cc1 [Example 11, N-(4-(7-chlorobenzo[d]oxazol-2-yl)phenyl)-1-methyl-1H-pyrazole-5-carboxamide] | 12.6 | 794 |
| Cn1nccc1C(=O)Nc1ccc(-c2nc3cccc(C(=O)NCCc4c[nH]c5ccccc45)c3o2)cc1 [Example 12, N-(2-(1H-indol-3-yl)ethyl)-2-(4-(1-methyl-1H-pyrazole-5-carboxamido)phenyl)benzo[d]oxazole-7-carboxamide] | 50.1 | 251 |
| Cn1nccc1C(=O)Nc1ccc(-c2nc3cccc(CO)c3o2)cc1 [Example 13, N-(4-(7-(hydroxymethyl)benzo[d]oxazol-2-yl)phenyl)-1-methyl-1H-pyrazole-5-carboxamide] | 100 | 794 |
| Cn1nccc1C(=O)Nc1ccc(-c2nc3cccc(C(N)=O)c3o2)cc1 [Example 14, 2-(4-(1-methyl-1H-pyrazole-5-carboxamido)phenyl) benzo [d]oxazole-7-carboxamide] | 200 | 2510 |
| CCNC(=O)c1cccc2nc(-c3ccc(NC(=O)c4ccnn4C)cc3)oc12 [Example 15, N-Ethyl-2-(4-(1-methyl-1H-pyrazole-5-carboxamido)phenyl) benzo[d]oxazole-7-carboxamide] | 398 | 1000 |
| Cn1nccc1C(=O)Nc1ccc(-c2nc3cccc(C#N)c3o2)cc1 [Example 16, N-(4-(7-Cyanobenzo[d]oxazol-2-yl)phenyl)-1-methyl-1H-pyrazole-5-carboxamide] | 15.8 | 2510 |
| Cc1cccc2oc(-c3ccc(NC(=O)c4ccnn4C)cc3)nc12 [Example 17, 1-methyl-N-(4-(4-methylbenzo[d]oxazol-2-yl)phenyl)-1H-pyrazole-5-carboxamide] | 31.6 | 1000 |
| Cn1nccc1C(=O)Nc1ccc(-c2nc3cccc(C(C)(C)O)c3o2)cc1 [Example 18, N-(4-(7-(2-hydroxypropan-2-yl)benzo[d]oxazol-2-yl)phenyl)-1-methyl-1H-pyrazole-5-carboxamide] | 363 | 251 |
| Cn1nccc1C(=O)Nc1ccc(-c2nc3cccc(Cl)c3[nH]2)cc1 [Example 19, N-(4-(7-chloro-1H-benzo[d]imidazol-2-yl)phenyl)-1-methyl-1H-pyrazole-5-carboxamide] | 145 | 316 |
| Cn1nccc1C(=O)Nc1ccc(-c2nc3ccccc3[nH]2)cc1 [Example 20, N-(4-(1H-benzo[d]imidazol-2-yl)phenyl)-1-methyl-1H-pyrazole-5-carboxamide] | 158 | 224 |
| Cn1nccc1C(=O)Nc1ccc(-c2nc3ccccc3s2)cc1 [Example 21, N-(4-(benzo[d]thiazol-2-yl)phenyl)-1-methyl-1H-pyrazole-5-carboxamide] | 50.1 | 316 |
| Cc1cc(NC(=O)c2ccnn2C)ccc1-c1nc2ccccc2o1 [Example 22, N-(4-(benzo[d]oxazol-2-yl)-3-methylphenyl)-1-methyl-1H-pyrazole-5-carboxamide] | 7.94 | 200 |
| Cc1cc(NC(=O)c2ccnn2C)ccc1-c1nc2c(C)cccc2o1 [Example 23, 1-methyl-N-(3-methyl-4-(4-methylbenzo[d]oxazol-2-yl)phenyl)-1H-pyrazole-5-carboxamide] | 17.4 | 1260 |
| COCCn1nccc1C(=O)Nc1ccc(-c2nc3cccc(C)c3o2)cc1 [Example 24, 1-(2-methoxyethyl)-N-(4-(7-methylbenzo[d]oxazol-2-yl)phenyl)-1H-pyrazole-5-carboxamide] | 63.1 | 631 |
